According to patent US12414960B2, “Analogues of oleuropein and oleacein and uses thereof” (Attica Sciences Ltd., priority 2020, dated 2025):
Where two headings read alike, the source gives them in different places.

What was measured:
[1] = tested on: HeLa cervical cancer cells; experiment: XTT cell growth assay, HeLa; format: cell-based, human; conditions: 24 h, NS = not statistically significant; for inhibition at 50 µM: Homo sapiens, HeLa, read-out: Effectiveness to suppress HeLa cell growth (cell growth inhibition)
Summary of the method: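 HeLa cells in DMEM were plated and incubated 24 h, then exposed 24 h to compound at 5, 10 or 50 μM in serum-free DMEM. After 4 h with XTT reagent, formazan absorbance was read at 450 nm (630 nm reference); serum-free medium served as negative control.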

ATP-citrate lyase (ACLY) = target: T1, ATP-citrate lyase (ACLY) (Homo sapiens, UniProt P53396); experiment: ACLY Assay Kit (ADP-Glo) enzymatic activity; format: biochemical
T1 construct: purchased BPS Bioscience
T1 sequence (P53396 1-1101): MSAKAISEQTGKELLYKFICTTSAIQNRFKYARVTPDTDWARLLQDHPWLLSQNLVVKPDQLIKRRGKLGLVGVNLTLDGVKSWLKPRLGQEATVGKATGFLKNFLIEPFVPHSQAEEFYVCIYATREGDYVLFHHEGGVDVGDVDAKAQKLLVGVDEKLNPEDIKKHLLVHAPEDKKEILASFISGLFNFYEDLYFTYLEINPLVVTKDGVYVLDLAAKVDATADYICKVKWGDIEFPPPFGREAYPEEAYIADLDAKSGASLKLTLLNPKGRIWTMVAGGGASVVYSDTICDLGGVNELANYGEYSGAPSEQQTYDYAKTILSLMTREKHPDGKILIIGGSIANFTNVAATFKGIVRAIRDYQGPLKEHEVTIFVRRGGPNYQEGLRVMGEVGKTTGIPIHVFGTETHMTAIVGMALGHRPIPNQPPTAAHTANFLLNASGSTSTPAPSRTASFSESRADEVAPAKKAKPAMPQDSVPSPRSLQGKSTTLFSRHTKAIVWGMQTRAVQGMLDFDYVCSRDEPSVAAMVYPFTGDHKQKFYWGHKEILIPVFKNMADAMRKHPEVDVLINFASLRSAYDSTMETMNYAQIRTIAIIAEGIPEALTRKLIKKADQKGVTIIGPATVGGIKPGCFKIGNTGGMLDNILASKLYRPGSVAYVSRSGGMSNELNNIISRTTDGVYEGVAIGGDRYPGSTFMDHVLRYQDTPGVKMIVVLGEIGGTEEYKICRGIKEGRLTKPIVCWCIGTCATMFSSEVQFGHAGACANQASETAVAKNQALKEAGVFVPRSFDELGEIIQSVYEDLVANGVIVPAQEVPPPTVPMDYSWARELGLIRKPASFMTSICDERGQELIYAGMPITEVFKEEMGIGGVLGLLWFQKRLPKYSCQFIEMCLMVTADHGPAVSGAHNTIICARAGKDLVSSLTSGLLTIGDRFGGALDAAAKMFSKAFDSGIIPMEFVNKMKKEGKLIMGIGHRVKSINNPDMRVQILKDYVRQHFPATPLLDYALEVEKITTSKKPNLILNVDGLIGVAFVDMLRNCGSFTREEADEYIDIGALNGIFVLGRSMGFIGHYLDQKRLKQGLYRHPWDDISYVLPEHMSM
Source text: An ACLY Assay Kit (BPS Bioscience) was used to evaluate GS27 against ATP-citrate lyase (ACLY) enzymatic activity. The ACLY Assay Kit is designed to measure ACLY activity for screening and profiling applications using ADP-Glo™ Kinase Assay as a detection reagent (Promega #V6930). The ADP-Glo™ Kinase Assay is a luminescent ADP detection assay that provides a universal, homogeneous, high-throughput screening method to measure kinase activity by quantifying the amount of ADP produced during a kinase reaction. Multiple (1, 10, 100, 250, 500, 1000, 2000 nM) GS27 concentrations were used to evaluate GS27 IC50 activity.

[2] = same assay as GS27, read-out: IC50 against ACLY enzyme

| IC50 (ATP-citrate lyase (ACLY); [2]) [µM] | Structure (SMILES) | inhibition at 50 µM [1] [%] | IC50 (ATP-citrate lyase (ACLY); 1-2000 nM tested, read-out: IC50 of ACLY activity) [µM] | Effectiveness to suppress HeLa cell growth (cell growth inhibition) ([1]; 50 uM) |
| --- | --- | --- | --- | --- |
|  | C/C=C1/[C@H](OC2OC(CO)C(O)C(O)C2O)OC=C(C(=O)O)[C@H]1CC(=O)OCCc1ccc(O)c(O)c1 (stereo in doubt) [GS6, (2S,4S,E)-4-(2-(3,4-dihydroxyphenethoxy)-2-oxoethyl)-3-ethylidene-2{[(2R,3S,4R,5R,6S)-3,4,5-trihydroxy-6-(hydroxymethyl)tetrahydro-2H-pyran-2-yl]oxy}-3,4dihydro-2H-pyran-5-carboxylic acid] | 48 |  |  |
| > 10 | C/C=C1/[C@H](O[C@@H]2O[C@H](CO)[C@@H](O)[C@H](O)[C@H]2O)OC=C(C(=O)OC)[C@H]1CC(=O)OCCc1ccc(O)c(O)c1 [GS1, oleuropein] |  |  |  |
| > 10 | C/C=C(/C=O)[C@@H](CC=O)CC(=O)OCCc1ccc(O)cc1 [GS19, (3S,4E)-4-formyl-3-(2-oxoethyl)-4-hexenoic acid 2-(4-hydroxyphenyl)ethyl ester, reference compound] | 79.1 |  |  |
|  | C/C=C(/C=O)[C@@H](CC=O)CC(=O)OCCOc1ccccc1 [GS24, (3S,4E)-4-formyl-3-(2-oxoethyl)-4-hexenoic acid 2-phenoxyethyl ester] | 66.6 |  |  |
|  | C/C=C(/C=O)[C@@H](CC=O)CC(=O)SCCc1ccccc1 [GS27, S-phenethyl (3S,4E)-4-formyl-3-(2-oxoethyl)hex-4-enethioate] | 39 | 0.0815 |  |
|  | C/C=C(/C=O)[C@@H](CC=O)CC(=O)OCCCSC [GS28, (3S,4E)-4-formyl-3-(2-oxoethyl)-4-hexenoic acid 3-(methylthio)propyl ester] | 81 |  | best efficacy |
